In this experiment the target is 5-hydroxytryptamine receptor 6 (Homo sapiens, UniProt P50406). The experiment in a line: 5-HT6 Binding Assay. Particulars: pH 7.4; 37 °C. On the procedure: The incubation was initiated by addition of membrane to reaction buffer contained radioligand in the presence of test compound. And the incubation time was 60 min at 37 deg C. After incubation, the membranes were collected onto polyethylenimine-pretreated glass fiber filters. Radioactivity was determined by scintillation counting. Nonspecific binding was determined with 100 uM serotonin. Competition binding data were analyzed by using the LIGAND program, and assays were performed in triplicate determinations for each point.
Chain of 5-hydroxytryptamine receptor 6 (P50406 whole entry): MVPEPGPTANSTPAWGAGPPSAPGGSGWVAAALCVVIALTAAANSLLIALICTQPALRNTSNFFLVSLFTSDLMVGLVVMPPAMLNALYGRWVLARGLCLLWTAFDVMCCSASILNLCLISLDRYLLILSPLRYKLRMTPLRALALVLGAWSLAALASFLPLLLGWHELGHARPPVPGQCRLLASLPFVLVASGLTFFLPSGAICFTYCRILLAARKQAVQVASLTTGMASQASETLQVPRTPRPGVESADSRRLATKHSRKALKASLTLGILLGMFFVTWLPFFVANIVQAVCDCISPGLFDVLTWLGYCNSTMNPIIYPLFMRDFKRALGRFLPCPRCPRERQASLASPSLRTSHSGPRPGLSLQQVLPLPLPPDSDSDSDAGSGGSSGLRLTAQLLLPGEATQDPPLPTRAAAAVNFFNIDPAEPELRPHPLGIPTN
In general, EC50 refers to the concentration at which the effect is half-maximal. High values mean lower potency in that assay, low ones higher potency in that assay. As a reminder, the Ki is the equilibrium dissociation constant of an inhibitor or competing ligand from its target. The low end stands for tighter binding, the high end for weaker binding. The molecule `O=S(=O)(Nc1ccc2[nH]cc(C[C@H]3CCCN3)c2c1)c1ccccc1I` [(R)-5a] showed an EC50 of 0.4 nM and a Ki of 1 nM. In the case of `CN(C)CCc1c[nH]c2ccc(NS(=O)(=O)c3ccc4c(Cl)cccc4c3)cc12`, the response was half-maximal at 0.29 nM (EC50). For the molecule `CN1CCC(c2cn(S(=O)(=O)c3ccccc3Br)c3ccccc23)C1` (centres undefined), the EC50 is 53.3 nM. This EC50 is about 180-fold higher than that of the molecule before.

Molecule `CN(C)Cc1cn(S(=O)(=O)c2ccccc2)c2ccccc12` showed an EC50 of 880 nM. Against the preceding molecule, the EC50 is about 17-fold higher. A word on the IC50: it is the concentration that gives 50% inhibition. The molecule `CC1=Cc2cc(NS(=O)(=O)c3c(Cl)nc4sccn34)ccc2C1` [indenylsulfonamide, 47+48] came in with an IC50 of 3000 nM and a Ki of 43 nM. `CN1CCC[C@H]1Cc1c[nH]c2ccc(NS(=O)(=O)c3ccc(C(F)(F)F)cc3)cc12` [pyrrolidinylindole, (S)-5b]: the response was half-maximal at 21.6 nM (EC50). As to `Cc1cn(S(=O)(=O)c2ccc(N)cc2)c2ccccc12` [4-(3-methyl-1H-indole-1-sulfonyl)aniline, 8], the midpoint of the response, the EC50, lay at 320 nM.
